From US20220402935A1, “HETEROCYCLIC COMPOUND” (FIMECS, INC., priority 2019, published 2022)

Columns and labels:
[1] = molecular target: T1, IRAK-M (Homo sapiens, UniProt Q9Y616); assay: IRAK-M binding inhibitory activity (KINOMEscan active site-dependent competitive assay); set-up: purchased Eurofins Discover X; conditions: for IC50: second symbol of cell, read-out: IRAK-M binding inhibition IC50 value; for remaining binding at 1 µM: concentration of the test compound 1 μM, first symbol of cell, read-out: IRAK-M binding inhibition activity % Ctrl
T1 sequence (Q9Y616 1-596): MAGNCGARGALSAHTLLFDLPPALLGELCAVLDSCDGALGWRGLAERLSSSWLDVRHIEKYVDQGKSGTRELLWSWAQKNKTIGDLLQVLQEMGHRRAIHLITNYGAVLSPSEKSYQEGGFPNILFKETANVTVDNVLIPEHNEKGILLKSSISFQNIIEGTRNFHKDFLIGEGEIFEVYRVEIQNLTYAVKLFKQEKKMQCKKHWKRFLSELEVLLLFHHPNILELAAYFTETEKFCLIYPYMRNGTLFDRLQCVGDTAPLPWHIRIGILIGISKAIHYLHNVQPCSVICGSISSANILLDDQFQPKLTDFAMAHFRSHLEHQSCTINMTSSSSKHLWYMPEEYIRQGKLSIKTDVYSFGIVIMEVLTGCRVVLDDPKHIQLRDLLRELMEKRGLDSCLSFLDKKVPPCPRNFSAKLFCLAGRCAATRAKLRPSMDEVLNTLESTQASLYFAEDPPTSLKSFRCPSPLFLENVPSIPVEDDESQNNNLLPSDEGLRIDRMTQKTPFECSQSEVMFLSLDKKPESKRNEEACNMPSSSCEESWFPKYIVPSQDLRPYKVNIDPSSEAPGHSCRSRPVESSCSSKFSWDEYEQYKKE
Summary of the method: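 Active site-dependent competition binding assay (KINOMEscan) against human IRAK-M. Result expressed as % Ctrl = (compound signal − positive control signal)/(DMSO signal − positive control signal) × 100, where DMSO = 100% Ctrl and control compound = 0% Ctrl.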

[2] = molecular target: T2, human XIAP_BIR3 domain purified protein (Homo sapiens, UniProt P98170); assay: XIAP binding inhibitory activity (HTRF, b-Smac ligand); conditions: second symbol of cell; read-out: XIAP binding inhibition IC50 value
T2 construct: purchased R & D
T2 sequence (P98170 252-356 limits assumed): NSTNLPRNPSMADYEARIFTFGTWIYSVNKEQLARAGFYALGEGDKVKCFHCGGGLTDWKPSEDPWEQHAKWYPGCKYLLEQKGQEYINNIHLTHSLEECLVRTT
Description: Human XIAP binding inhibitory activity was measured by the Homogeneous Time Resolved Fluorescence (HTRF) method with using commercially available human XIAP_BIR3 domain purified protein (R & D) and as a ligand a Smac N-terminal peptide (AVPIAQK (SEQ ID NO: 1)) (hereinafter referred to as “b-Smac”; Peptide Research Laboratories, Inc.) biotinylated at the C-terminus according to a conventional method.
The HTRF method will be described in detail below.
The test compound diluted with a reaction buffer (25 mM HEPES Buffer containing 100 mM NaCl, 0.1% BSA, and 0.1% triton X-100, pH 7.5) was added to a 384-well white shallow bottom plate (Greiner 784076) at 1 μL/well and flash centrifuged for 30 seconds. Subsequently, human XIAP_BIR3 domain purified protein was diluted with the reaction buffer to obtain a 90 nM sample diluent, and the resultant sample diluent was added to the above-mentioned white superficial plate at 4.5 μL/well and flash centrifuged for 30 seconds. Subsequently, b-Smac diluted to 90 nM with the reaction buffer was added to the above-mentioned white superficial plat at 4.5 μL/well and flash centrifuged for 30 seconds. A mixed solution of Anti-6 HIS-Cryptate (Eu^3+ Cryptate-conjugated mouse monoclonal antibody anti-6 Histidine; cisbio) and Streptavidin-XL^eat (Highgrade XL665-conjugated streptavidin; cisbio) both diluted 100-fold with HTRF detection buffer (cisbio) at a volume ratio of 1:1 was added to the above white superficial plate at 10 μL/well. After flash centrifuging the white shallow bottom plate for 30 seconds, the white shallow bottom plate was left at room temperature for 4 hours or more in the dark. The white superficial plate after being left was subjected to fluorescence intensity measurement (excitation wavelength: 320 nm, fluorescence wavelength: 665 nm and 615 nm) by EnVision (Perkin Elmer). The binding inhibition rate (%) was calculated based on the HTRF ratio in the presence of the test compound to the HTRF ratio in the absence of the test compound (fluorescence intensity at 665 nm/fluorescence intensity at 615 nm).
The XIAP binding inhibition rate (%) of test compounds was evaluated.

Structure (SMILES) | IC50 [1] [nM] | IC50 [2] [nM] | remaining binding at 1 µM [1] [%]
CN[C@@H](C)C(=O)N[C@H](C(=O)N1CCN(C(=O)c2c(C(=O)NCCOCCOCCOCCOc3cc(CN4CCC(Oc5ccnc6ccsc56)CC4)on3)c3cc(F)c(F)cc3n2C)CC1)C1CCCCC1 [Example 6, 2-(4-((S)-2-cyclohexyl-2-((S)-2-(methylamino)propanamido)acetyl)piperazine-1-carbonyl)-5,6-difluoro-1-methyl-N-(2-(2-(2-(2-((5-((4-(thieno[3,2-b]pyridin-7-yloxy)piperidin-1-yl)methyl)isoxazol-3-yl)oxy)ethoxy)ethoxy)ethoxy)ethyl)-1H-indole-3-carboxamide] | 100 to 300 | 300 to 3000 | 
CN[C@@H](C)C(=O)N[C@H](C(=O)N1CCN(C(=O)c2c(C(=O)NCCOCCOCCOc3cc(CN4CCC(Oc5ccnc6ccsc56)CC4)n(C)n3)c3cc(F)c(F)cc3n2C)CC1)C1CCCCC1 [Example 7, 2-(4-((S)-2-cyclohexyl-2-((S)-2-(methylamino)propanamido)acetyl)piperazine-1-carbonyl)-5,6-difluoro-1-methyl-N-(2-(2-(2-((1-methyl-5-((4-(thieno[3,2-b]pyridin-7-yloxy)piperidin-1-yl)methyl)-1H-pyrazol-3-yl)oxy)ethoxy)ethoxy)ethyl)-1H-indole-3-carboxamide] |  | 300 to 3000 | 25 to 50
CN[C@@H](C)C(=O)N[C@H](C(=O)N1CCN(C(=O)c2c(C(=O)NCCOCCOCCOc3cc(CN4CCC(Oc5ccnc6cc(C)sc56)CC4)on3)c3cc(F)c(F)cc3n2C)CC1)C1CCCCC1 [Example 8, 2-(4-((S)-2-cyclohexyl-2-((S)-2-(methylamino)propanamido)acetyl)piperazine-1-carbonyl)-5,6-difluoro-1-methyl-N-(2-(2-(2-((5-((4-((2-methylthieno[3,2-b]pyridin-7-yl)oxy)piperidin-1-yl)methyl)isoxazol-3-yl)oxy)ethoxy)ethoxy)ethyl)-1H-indole-3-carboxamide] | 30 to 100 | 300 to 3000 | 
CN[C@@H](C)C(=O)N[C@H](C(=O)N1CCN(C(=O)c2c(C(=O)NCCOCCOCCOc3cc(C(C)N4CCC(Oc5ccnc6cc(C)sc56)CC4)on3)c3cc(F)c(F)cc3n2C)CC1)C1CCCCC1 (stereo partly drawn) [Example 9, 2-(4-((S)-2-cyclohexyl-2-((S)-2-(methylamino)propanamido)acetyl)piperazine-1-carbonyl)-5,6-difluoro-1-methyl-N-(2-(2-(2-((5-(1-(4-((2-methylthieno[3,2-b]pyridin-7-yl)oxy)piperidin-1-yl)ethyl)isoxazol-3-yl)oxy)ethoxy)ethoxy)ethyl)-1H-indole-3-carboxamide] | 30 to 100 | 300 to 3000 | 
CN[C@@H](C)C(=O)N[C@H](C(=O)N1CCN(C(=O)c2c(C(=O)NCCOCCOCCOc3cc(CN4CCC(Oc5ccnc6ccsc56)CC4)on3)c3cc(F)c(F)cc3n2C)C[C@H]1C)C1CCCCC1 [Example 10, 2-((R)-4-((S)-2-cyclohexyl-2-((S)-2-(methylamino)propanamido)acetyl)-3-methylpiperazine-1-carbonyl)-5,6-difluoro-1-methyl-N-(2-(2-(2-((5-((4-(thieno[3,2-b]pyridin-7-yloxy)piperidin-1-yl)methyl)isoxazol-3-yl)oxy)ethoxy)ethoxy)ethyl)-1H-indole-3-carboxamide] |  | 300 to 3000 | 25 to 50
CN[C@@H](C)C(=O)N[C@H](C(=O)N1CCN(C(=O)c2c(C(=O)N(C)CCOCCOCCOc3cc(CN4CCC(Oc5ccnc6ccsc56)CC4)on3)c3cc(F)c(F)cc3n2C)C[C@H]1C)C1CCCCC1 [Example 11, 2-((R)-4-((S)-2-cyclohexyl-2-((S)-2-(methylamino)propanamido)acetyl)-3-methylpiperazine-1-carbonyl)-5,6-difluoro-N,1-dimethyl-N-(2-(2-(2-((5-((4-(thieno[3,2-b]pyridin-7-yloxy)piperidin-1-yl)methyl)isoxazol-3-yl)oxy)ethoxy)ethoxy)ethyl)-1H-indole-3-carboxamide] |  | 3000 to 30000 | < 25
CN[C@@H](C)C(=O)N[C@H](C(=O)N1CCN(C(=O)c2cc3cc(F)ccc3n2CC(=O)N(C)CCOc2cc(CN3CCC(Oc4ccnc5ccsc45)CC3)on2)[C@@H](C)C1)C1CCCCC1 [Example 50, (S)-N-((S)-1-cyclohexyl-2-((S)-4-(5-fluoro-1-(2-(methyl(2-((5-((4-(thieno[3,2-b]pyridin-7-yloxy)piperidin-1-yl)methyl)isoxazol-3-yl)oxy)ethyl)amino)-2-oxoethyl)-1H-indole-2-carbonyl)-3-methylpiperazin-1-yl)-2-oxoethyl)-2-(methylamino)propanamide] |  | 3000 to 30000 | 

Second part, the compound after the results:

IC50 [1] [nM] | IC50 [2] [nM] | remaining binding at 1 µM [1] [%] | Structure (SMILES)
300 to 1000 | 300 to 3000 |  | CN[C@@H](C)C(=O)N[C@H](C(=O)N1CCN(C(=O)c2c(C(=O)NCCOCCOCCOc3ccc(S(=O)(=O)N4CCC(Oc5ncnc6ccsc56)CC4)cc3)c3ccc(OC)cc3n2C)CC1)C1CCCCC1 [Example 2, 2-(4-((S)-2-Cyclohexyl-2-((S)-2-(methylamino)propanamido)acetyl)piperazine-1-carbonyl)-6-methoxy-1-methyl-N-(2-(2-(2-(4-((4-(thieno[3,2-d]pyrimidin-4-yloxy)piperidin-1-yl)sulfonyl)phenoxy)ethoxy)ethoxy)ethyl)-1H-indole-3-carboxamide]
100 to 300 | 300 to 3000 |  | CN[C@@H](C)C(=O)N[C@H](C(=O)N1CCN(C(=O)c2c(C(=O)N(C)CCOCCOCCOc3cc(CN4CCC(Oc5ccnc6ccsc56)CC4)on3)c3cc(F)ccc3n2C)CC1)C1CCCCC1 [Example 3, 2-(4-((S)-2-cyclohexyl-2-((S)-2-(methylamino)propanamido)acetyl)piperazine-1-carbonyl)-5-fluoro-N,1-dimethyl-N-(2-(2-(2-((5-((4-(thieno[3,2-b]pyridin-7-yloxy)piperidin-1-yl)methyl)isoxazol-3-yl)oxy)ethoxy)ethoxy)ethyl)-1H-indole-3-carboxamide]
300 to 1000 | 300 to 3000 |  | CN[C@@H](C)C(=O)N[C@H](C(=O)N1CCN(C(=O)c2c(C(=O)NCCOCCOc3cc(CN4CCC(Oc5ccnc6ccsc56)CC4)on3)c3cc(F)c(F)cc3n2C)CC1)C1CCCCC1 [Example 4, 2-(4-((S)-2-cyclohexyl-2-((S)-2-(methylamino)propanamido)acetyl)piperazine-1-carbonyl)-5,6-difluoro-1-methyl-N-(2-(2-((5-((4-(thieno[3,2-b]pyridin-7-yloxy)piperidin-1-yl)methyl)isoxazol-3-yl)oxy)ethoxy)ethyl)-1H-indole-3-carboxamide]
300 to 1000 | 300 to 3000 |  | CN[C@@H](C)C(=O)N[C@H](C(=O)N1CCN(C(=O)c2c(C(=O)NCCOCCOCCOc3cc(CN4CCC(Oc5ccnc6ccsc56)CC4)on3)c3cc(F)c(F)cc3n2C)CC1)C1CCCCC1 [Example 5, 2-(4-((S)-2-cyclohexyl-2-((S)-2-(methylamino)propanamido)acetyl)piperazine-1-carbonyl)-5,6-difluoro-1-methyl-N-(2-(2-(2-((5-((4-(thieno[3,2-b]pyridin-7-yloxy)piperidin-1-yl)methyl)isoxazol-3-yl)oxy)ethoxy)ethoxy)ethyl)-1H-indole-3-carboxamide]
